Measured values reported in patent US11357786B2, “Synthetic disugar hydrocarbons as natural analogs to control microbial behaviors” (Syracuse University, priority 2014, dated 2022).

System: PAO1-GFP
Assay: microbe, parasite or virus in culture
Assay type: cell-based, Pseudomonas aeruginosa
Experimental: A crystal violet (CV) assay was used to measure the amount of PAO1 biofilm formed after 24 h of bacterial inoculation. The fluorescence of green fluorescent proteins (GFP) expressed by PAO1-GFP was measured to directly quantify bacterial adhesion on polystyrene black 96 well plates with and without maltose derivatives after 2 h of bacterial inoculation. To evaluate the potential of maltose derivatives as both anti-biofilm and anti-adhesion agents, they were compared to a brominated furanone (BF8) known to inhibit biofilm formation, and two generic surfactants, sodium dodecyl sulfate (SDS) and tetra (ethylene glycol) monododecyl ether (C12EG4OH). […] P. aeruginosa strain PAO1-EGFP that constitutively producing green fluorescent protein was allowed to form biofilm on sterile steel coupons.
Overnight culture of PAO1-GFP was subcultured to an OD600 of 0.01 into the 95:5 M9+:Lb medium. Subculture was allowed to reach the OD600 of 0.1 in a rotary shaker at 250 rpm and 37° C. 200 μL of the subculture was then transferred to the wells of black microtiter plate with and without (control) maltose derivatives. This black 96 well plate was then incubated in a shaker at 37° C. for 2 h. After 2 h, bacterial culture from the plate was discarded and each well was washed once with saline water (0.85 w/v % aqueous NaCl solution). Fresh 95:5 M9+:Lb medium was added to the black 96 well plate and fluorescence of the surface adhered bacteria was measured by Synergy 2 multi-mode microplate reader with Gen5 data analysis software at an excitation wavelength of 500 nm and an emission wavelength of 540 nm. Background signal from 95:5 M9+:Lb medium was eliminated from all the samples.

## CCCCCCCCCCCCOCCOCCOCCOCCO [C12EG4OH, tetra (ethylene glycol) monododecyl ether, reference compound]
85 μM, 2 h
  Inhibition of PAO1-EGFP adhesion on polystyrene: about 40%

## CCCCCCCCCCCCOS(=O)(=O)[O-].[Na+] [SDS, sodium dodecyl sulfate, reference compound]
Pseudomonas aeruginosa, PAO1, 2 h, read-out: Inhibition of PAO1-EGFP adhesion on polystyrene
  inhibition at 85 µM: ~40%
